US20040106545A1, “Compounds and methods for modulating cell adhesion” (priority 1996, published 2004)
“Also recorded” adds a separate entry of the source. Where two headings read alike, the source gives them in different places. Values belong to the compound of their own block, whether it stands above or below them. Positions of bridges follow the written chain, without caps; N, C: chain ends. Residues, ends and D or L forms follow the SMILES beside them.

Columns and labels:
[1] = molecular target: T1, chick N-cadherin (Gallus gallus, UniProt P10288); experiment: Neurite outgrowth of rat cerebellar neurons on N-cadherin expressing 3T3 monolayers (Example 15); type: cell-based; conditions: for inhibitory activity on N-cadherin dependent neurite outgrowth, structure/activity statements: Tables 8 and 9
T1 construct: expressed in transfected cells; host or cells: 3T3 fibroblasts (monolayer); rat post-natal day 2-3 cerebellar neurons plated on top
T1 sequence (P10288 165-912): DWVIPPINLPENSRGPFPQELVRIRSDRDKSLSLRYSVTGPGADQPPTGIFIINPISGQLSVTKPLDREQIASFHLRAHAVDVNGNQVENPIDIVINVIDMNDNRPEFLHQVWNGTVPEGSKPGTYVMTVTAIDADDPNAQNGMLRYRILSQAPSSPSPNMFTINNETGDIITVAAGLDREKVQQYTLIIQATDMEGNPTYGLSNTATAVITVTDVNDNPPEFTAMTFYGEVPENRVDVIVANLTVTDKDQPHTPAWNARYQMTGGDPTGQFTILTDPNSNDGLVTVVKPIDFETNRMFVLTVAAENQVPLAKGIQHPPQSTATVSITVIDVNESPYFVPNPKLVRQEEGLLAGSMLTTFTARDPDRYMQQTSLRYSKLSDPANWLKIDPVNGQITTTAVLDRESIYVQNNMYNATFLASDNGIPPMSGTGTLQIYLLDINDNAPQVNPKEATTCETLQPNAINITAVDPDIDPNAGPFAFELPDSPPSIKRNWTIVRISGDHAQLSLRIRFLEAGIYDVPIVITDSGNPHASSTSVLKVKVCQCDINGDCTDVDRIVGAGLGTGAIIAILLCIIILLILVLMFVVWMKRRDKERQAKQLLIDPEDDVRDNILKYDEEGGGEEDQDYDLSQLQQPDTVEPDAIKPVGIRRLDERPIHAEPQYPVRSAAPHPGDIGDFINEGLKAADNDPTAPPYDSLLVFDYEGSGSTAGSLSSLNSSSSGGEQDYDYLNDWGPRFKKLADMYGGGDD
Procedure: (§1) Cell culture and neurite outgrowth assays. Co-cultures of cerebellar neurons on monolayers of control 3T3 cells and monolayers of transfected 3T3 cells that express physiological levels of chick N-cadherin or human L1 were established as previously described (Williams et al., Neuron 13:583-594, 1994). In brief, 80,000 3T3 cells (control and transfected) were plated into individual chambers of an eight-chamber tissue culture slide coated with polylysine and fibronectin and cultured in DMEM/10% FCS. After 24 hours, when confluent monolayers had formed, the medium was removed and 3000 cerebellar neurons isolated from post-natal day 2-3 rats were plated into each well in SATO media (Doherty et al., Nature 343:464-466, 1990) supplemented with 2% FCS. All of the test peptides were added immediately before the neurons as a 2× stock prepared in SATO/2% FCS. The co-cultures were maintained for 16-18 hours, at which time they were fixed and immunostained for GAP-43 which is present only in the neurons and delineates the neuritic processes. The mean length of the longest neurite per cell was measured for 150-200 neurons sampled in replicate cultures as previously described (Williams et al., Neuron 13:583-594, 1994). […] Dose-response curves were evaluated and the EC50 values determined.

[2] = system: Madin Darby canine kidney (MDCK) cells; type: cell-based; conditions: 18 h
[3] = system: MDA-MB231; experiment: Cytotoxicity, MTT assay, MDA-MB231; type: cell-based, human
Procedure: (§2) N—Ac-CHAVC-NH2 (SEQ ID NO:10) and the control peptide N—Ac-CHGVC-NH2 (SEQ ID NO:11) were evaluated for possible cytotoxic effects on human microvascular endothelial (HMVEC; Clonetics), human umbilical vein endothelial (HUVEC; ATCC #CRL-1730), IAFp2 (human fibroblast cell line; Institute Armand-Frapier, Montreal, Quebec), WI-38 (human fibroblast cell line; ATCC #CCL-75), MDA-MB231 (human breast cancer cell line; ATCC #HTB-26), and PC-3 (human prostate cancer cell line; ATCC #CRL-1435) cells utilizing the MTT assay (Plumb et al., Cancer Res. 49:4435-4440, 1989). Neither of the peptides was cytotoxic at concentrations up to and including 100 μM. Similarly, neither of the peptides was capable of inhibiting the proliferation of the above cell lines at concentrations up to 100 μM, as judged by ^3H-thymidine incorporation assays.

[4] = molecular target: T2, N-cadherin (Gallus gallus, UniProt P10288); experiment: Neurite outgrowth inhibition, rat neurons (Example 21); type: cell-based; conditions: read-out: % Inhibition of neurite outgrowth; 250 μg/mL
T2 construct: expressed in transfected cells; host or cells: 3T3 fibroblasts (monolayer)
T2 sequence (P10288 165-912): T1 sequence (P10288 165-912)

[5] = system: IAFp2; type: cell-based, human; conditions: 3 h
Procedure: as §2

[6] = system: HUVEC; type: cell-based, human; conditions: 3 h
Procedure: as §2

[7] = system: MDA-MB231; type: cell-based, human; conditions: 3 h
Procedure: as §2

[8] = system: PC-3; type: cell-based, human; conditions: 3 h
Procedure: as §2

[9] = system: WI-38; type: cell-based, human; conditions: 3 h
Procedure: as §2

[10] = system: HMVEC; type: cell-based, human; conditions: 3 h
Procedure: as §2

[11] = system: PC-3; experiment: Cytotoxicity, MTT assay, PC-3; type: cell-based, human
Procedure: as §2

[12] = system: Madin Darby canine kidney (MDCK) cells; type: cell-based; conditions: for EC50, decrease of electrical resistance across MDCK cell monolayer: 18 hours
Procedure: Yet another assay evaluates the effect of a modulating agent on the electrical resistance across a monolayer of cells. For example, Madin Darby canine kidney (MDCK) cells can be exposed to the modulating agent dissolved in medium (e.g., at a final concentration of 0.5 mg/ml for a period of 24 hours). The effect on electrical resistance can be measured using standard techniques. This assay evaluates the effect of a modulating agent on tight junction formation in epithelial cells. In general, the presence of 500 μg/mL modulating agent should result in a statistically significant decrease in electrical resistance after 24 hours.
Madin Darby canine kidney (MDCK) cells were plated in Millicells (Millipore, Bedford, Mass.), at a density of 300,000 cells per Millicell, and cultured in Dulbecco's Modified Eagle Medium (DMEM; Sigma, St. Louis, Mo.) containing 5% fetal calf serum (Sigma, St. Louis, Mo.) until monolayers formed. Monolayers were exposed to the modulating agent dissolved in medium. The electrical resistance was measured using the EVOM device (World Precision Instruments, Sarasota, Fla.). At the time of measurement, fresh medium, with or without the modulating agent, may be added to the Millicells.

[13] = molecular target: L1 (Homo sapiens, UniProt P32004); experiment: Neurite outgrowth of rat cerebellar neurons on L1 expressing 3T3 monolayers (Example 15); type: cell-based; parameters: expressed in transfected cells; rat cerebellar neurons on top; conditions: for inhibition at 125 µg/mL: 125 μg/ml, read-out: % Inhibition of L1 Response; for effect on L1 stimulated neurite outgrowth (in words): concentrations that inhibited the N-cadherin response (100 μg/mL in FIG. 24)
Procedure: as §1
Other cell adhesion molecules, such as L1, can stimulate neurite outgrowth, and this response shares the same downstream signaling steps as the N-cadherin response. […] As previously reported, L1 stimulated neurite outgrowth from cerebellar neurons.

[14] = system: SKOV3 cells; experiment: Disruption of human ovarian cancer cell (SKOV3) adhesion; type: cell-based; conditions: 1 mg/mL media, within 24 hours
Procedure: FIGS. 37A and 37B are photographs illustrating the effect of N—Ac-CHAVC-Y—NH2 (SEQ ID NO:84) on SKOV3 cell adhesion. A confluent culture of SKOV3 cells was briefly trypsinated and counted using a hemacytometer. The cells were diluted to 5×10^3/mL in MEM (Gibco BRL) containing 10% FBS (Wisent). A 10 mg/mL solution of peptide was added directly to the media at a concentration of 1 mg/mL. The plate was incubated in a humidified chamber at 37° C. for 24 hours in 5% CO2. Morphological changes were evaluated after 24 hours.
The human ovarian cancer cell line SKOV3 (ATCC #HTB-77) expresses N-cadherin. SKOV3 cells were cultured in a modified MEM-based media containing 10% FCS. Cells were grown in T-250 culture flasks and maintained by periodic subculturing. Cyclic peptides were tested on cells grown in individual wells of 96-well culture dishes (surface area of each well was 0.32 cm^2). Cells were harvested from flasks and seeded at a density of 50,000 cells per well in 0.1 mL media containing the cyclic peptides at concentrations of 1, 0.1, or 0.01 mg/mL, or in the absence of cyclic peptide. Media control wells were also established. Cultures were evaluated periodically by microscopic examination under both bright field and phase contrast conditions. Cultures were maintained for 48 hours.

[15] = 250 μg/mL, 16-18 hours, read-out: % Inhibition of N-Cadherin Dependent Neurite Outgrowth

Chain of L1 (P32004 20-1257): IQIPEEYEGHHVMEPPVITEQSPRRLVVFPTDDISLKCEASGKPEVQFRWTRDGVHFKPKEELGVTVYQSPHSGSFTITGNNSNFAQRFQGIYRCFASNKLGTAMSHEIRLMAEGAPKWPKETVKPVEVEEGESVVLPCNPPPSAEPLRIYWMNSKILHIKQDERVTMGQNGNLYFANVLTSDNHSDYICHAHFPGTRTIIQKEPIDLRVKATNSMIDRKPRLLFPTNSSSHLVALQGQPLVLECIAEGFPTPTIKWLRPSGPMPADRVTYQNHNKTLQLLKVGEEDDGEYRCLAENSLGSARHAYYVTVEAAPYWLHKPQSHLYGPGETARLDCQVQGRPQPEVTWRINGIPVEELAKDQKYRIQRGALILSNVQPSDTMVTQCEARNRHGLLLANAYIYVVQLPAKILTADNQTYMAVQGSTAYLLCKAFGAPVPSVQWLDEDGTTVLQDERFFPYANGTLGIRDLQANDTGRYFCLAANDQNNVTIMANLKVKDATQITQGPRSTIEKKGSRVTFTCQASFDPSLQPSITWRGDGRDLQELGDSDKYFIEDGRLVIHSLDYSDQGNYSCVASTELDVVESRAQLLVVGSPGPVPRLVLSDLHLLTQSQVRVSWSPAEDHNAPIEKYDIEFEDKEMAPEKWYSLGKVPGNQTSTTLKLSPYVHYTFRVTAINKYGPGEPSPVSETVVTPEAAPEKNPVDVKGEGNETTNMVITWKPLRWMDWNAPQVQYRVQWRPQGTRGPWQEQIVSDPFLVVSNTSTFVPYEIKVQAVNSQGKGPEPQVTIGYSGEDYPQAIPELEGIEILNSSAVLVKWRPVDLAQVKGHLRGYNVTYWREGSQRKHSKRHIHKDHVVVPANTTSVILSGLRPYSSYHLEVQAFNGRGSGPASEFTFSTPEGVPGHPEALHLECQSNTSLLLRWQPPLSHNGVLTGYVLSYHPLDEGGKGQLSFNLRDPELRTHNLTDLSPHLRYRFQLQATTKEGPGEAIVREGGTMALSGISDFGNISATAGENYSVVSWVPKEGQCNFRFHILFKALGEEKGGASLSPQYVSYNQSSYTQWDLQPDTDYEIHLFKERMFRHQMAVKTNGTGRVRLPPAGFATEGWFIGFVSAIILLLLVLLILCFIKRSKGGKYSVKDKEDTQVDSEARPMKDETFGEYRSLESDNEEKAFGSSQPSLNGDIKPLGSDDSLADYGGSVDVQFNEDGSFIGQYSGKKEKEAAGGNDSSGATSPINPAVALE

Structure (SMILES): CC[C@H](C)[C@@H]1NC(=O)[C@H](CC(=O)O)NC(=O)[C@H](C(C)C)NC(=O)[C@H](C)NC(=O)[C@H](Cc2c[nH]cn2)NC(=O)[C@@H](NC(C)=O)CSSC[C@@H](C(N)=O)NC(=O)[C@H](CC(N)=O)NC1=O (Ac-CHAVDINC-NH2; disulfide 1-8)
effect on electrical resistance across MDCK cells (in words) [12]: complete abrogation of E-cadherin specific activity
EC50, decrease of electrical resistance across MDCK cell monolayer [12]: INACTIVE
inhibition at 125 µg/mL [13]: 1.7 ± 7.3%
effect on L1 stimulated neurite outgrowth (in words) ([13]; listed as N—Ac-CHAVDINC-NH2): did not interfere with the ability of neurons to extend neurites over 3T3 cells expressing L1
inhibitory activity on N-cadherin dependent neurite outgrowth, structure/activity statements ([1]; listed as N—Ac-CHAVDINC-NH2): only a slight loss in activity; also recorded: potent inhibitors

Structure (SMILES): CC(=O)N[C@H]1CSSC[C@@H](C(=O)N[C@@H](CO)C(=O)N[C@@H](CO)C(N)=O)NC(=O)[C@H](C(C)C)NC(=O)[C@H](C)NC(=O)[C@H](Cc2c[nH]cn2)NC1=O [N—Ac—CHAVCSS—NH2] (Ac-CHAVCSS-NH2; disulfide 1-5)
inhibition at 250 µg/mL [1, 15]: 37.8 ± 4%
EC50 [2]: 430 µM

Structure (SMILES): CC(=O)N[C@H]1CSSC[C@@H](C(=O)N[C@H](C(N)=O)[C@@H](C)O)NC(=O)[C@H](C(C)C)NC(=O)[C@H](C)NC(=O)[C@H](Cc2c[nH]cn2)NC1=O [N—Ac—CHAVCT—NH2] (Ac-CHAVCT-NH2; disulfide 1-5)
inhibition at 250 µg/mL [1, 15]: 23.7 ± 6.6%
EC50 [2]: 480 µM

Structure (SMILES): CC(=O)N[C@H]1CSSC[C@@H](C(=O)N[C@@H](CC(=O)O)C(N)=O)NC(=O)[C@H](C(C)C)NC(=O)[C@H](C)NC(=O)[C@H](Cc2c[nH]cn2)NC1=O [N—Ac—CHAVCD—NH2] (Ac-CHAVCD-NH2; disulfide 1-5)
inhibition at 250 µg/mL [1, 15]: 3.3 ± 10%
EC50 [2]: 470 µM

Structure (SMILES): CC(C)[C@@H]1NC(=O)[C@H](C)NC(=O)[C@H](Cc2c[nH]cn2)NC(=O)[C@@H](NC=O)CSSC[C@@H](C(N)=O)NC1=O [H—C(O)—NH—CHAVC—NH2]
effect on electrical resistance across MDCK cells (in words) [12]: decrease in potency
EC50 [2]: 560 µM

Further lines, with some results ahead:

reduction in inhibitory activity on flanking HAV with E-cadherin amino acids ([1]; 250 μg/mL (Table 8)): complete
inhibition at 250 µg/mL [4]: 0%
IC50 [5]: > 100 µM
IC50 [7]: > 100 µM
IC50 [8]: > 100 µM
IC50 [10]: > 100 µM
Structure (SMILES): CC(=O)N[C@H]1CSSC[C@@H](C(N)=O)NC(=O)[C@H](C(C)C)NC(=O)[C@H](C)NC(=O)[C@H](Cc2c[nH]cn2)NC(=O)[C@H](CO)NC1=O [N—Ac—CSHAVC—NH2, N-Ac-Cys-Ser-His-Ala-Val-Cys-NH2] (Ac-CSHAVC-NH2; disulfide 1-6)
EC50 [2]: 20 µM
IC50 [3]: > 100 µM
IC50 [6]: > 100 µM
IC50 [9]: > 100 µM
IC50 [11]: > 100 µM

inhibition at 125 µg/mL [13]: 9.6 ± 3.3%
inhibition of N-cadherin dependent neurite outgrowth (in words) ([1]; 250 μg/mL): potent inhibitors of neurite outgrowth
inhibition at 250 µg/mL [4]: 88%
Structure (SMILES): CC(=O)N[C@H]1CSSC[C@@H](C(N)=O)NC(=O)[C@H](CC(=O)O)NC(=O)[C@H](C(C)C)NC(=O)[C@H](C)NC(=O)[C@H](Cc2c[nH]cn2)NC1=O [N—Ac—CHAVDC—NH2] (Ac-CHAVDC-NH2; disulfide 1-6)
effect on electrical resistance across MDCK cells (in words) [12]: complete abrogation of E-cadherin specific activity
EC50, decrease of electrical resistance across MDCK cell monolayer [12]: INACTIVE
effect on L1 stimulated neurite outgrowth (in words) [13]: did not interfere with the ability of neurons to extend neurites over 3T3 cells expressing L1
inhibitory activity on N-cadherin dependent neurite outgrowth, structure/activity statements [1]: dramatically increased the inhibitory activity

% inhibition of N-cadherin dependent neurite outgrowth ([1]; 125 μg/mL, 16-18 hours): 89.8 ± 6.8%
inhibition at 125 µg/mL ([1]; 125 μg/mL, 16-18 hours, read-out: % Inhibition of N-Cadherin Dependent Neurite Outgrowth): 89.9%
Structure (SMILES): CC(=O)N[C@H]1CSSC[C@@H](C(=O)N[C@@H](Cc2ccc(O)cc2)C(N)=O)NC(=O)[C@H](C(C)C)NC(=O)[C@H](C)NC(=O)[C@H](Cc2c[nH]cn2)NC1=O [N—Ac—CHAVCY—NH2] (Ac-CHAVCY-NH2; disulfide 1-5)
effect on electrical resistance across MDCK cells (in words) [12]: the most active
EC50 [2]: 210 µM
disruption of SKOV3 cell adhesion [14]: disrupted SKOV3 cell adhesion
